A short description of this data set: refractive index (Na D-line) (dimensionless). Particulars: 101.33 kPa, Liquid, Standard Abbe refractometry.

± gives the expanded uncertainty stated by the source.

In the NIST ThermoML archive (doi:10.1021/acs.jced.6b00901) one finds refractive index data, which are given here for three compounds.

What is called refractive index is a measure of how strongly the sample bends light. For `C1=CC2C3C=CC(C3)C2C1` (configuration not stated) [3a,4,7,7a-tetrahydro-4,7-methanoindene], the refractive index (308.15 K) is 1.5069 ± 0.0004, the refractive index (313.15 K) was determined as 1.5045 ± 0.0004, the refractive index (318.15 K) was found to be 1.5019 ± 0.0004 and the refractive index (323.15 K) was 1.4991 ± 0.0004.

Regarding `C=Cc1ccccc1` [styrene], the refractive index is, setting by setting: (283.15 K) 1.5533 ± 0.0004; (288.15 K) 1.5505 ± 0.0004; (293.15 K) 1.5472 ± 0.0004; (298.15 K) 1.544 ± 0.0004; (303.15 K) 1.5409 ± 0.0004; (308.15 K) 1.538 ± 0.0004. In addition, the refractive index was 1.5352 ± 0.0004 (313.15 K), 1.5321 ± 0.0004 (318.15 K) and 1.5291 ± 0.0004 (323.15 K).

As for `CCOC(=O)c1ccccc1C(=O)OCC` [diethyl phthalate], the refractive index by setting is: (283.15 K) 1.507 ± 0.0004; (288.15 K) 1.5048 ± 0.0004; (293.15 K) 1.5027 ± 0.0004; (298.15 K) 1.5005 ± 0.0004; (303.15 K) 1.4984 ± 0.0004; (308.15 K) 1.4962 ± 0.0004. In addition, the refractive index is 1.4939 ± 0.0004 (313.15 K), 1.4917 ± 0.0004 (318.15 K) and 1.4897 ± 0.0004 (323.15 K).
